From US5597848A, “Benzenesulfonamide derivatives and use thereof” (Hokuriku Seiyaku Co., Ltd., priority 1992, dated 1997)

How the values were obtained:
thromboxane A2 receptor = molecular target: T1, thromboxane A2 receptor (Cavia porcellus, UniProt A0A286Y4I8); assay: Thromboxane A2 antagonistic effect: inhibition of U-46619-induced platelet aggregation in guinea-pig platelet-rich plasma; format: cell-based, guinea-pigs; settings: guinea-pig PRP, U-46619 2 μg/ml, 2 min at 37° C.; read-out: IC50 (50% inhibition against platelet aggregation)
T1 construct: platelet-rich plasma; endogenous in cells; host or cells: guinea-pig platelets in platelet-rich plasma
T1 sequence (A0A286Y4I8 1-347): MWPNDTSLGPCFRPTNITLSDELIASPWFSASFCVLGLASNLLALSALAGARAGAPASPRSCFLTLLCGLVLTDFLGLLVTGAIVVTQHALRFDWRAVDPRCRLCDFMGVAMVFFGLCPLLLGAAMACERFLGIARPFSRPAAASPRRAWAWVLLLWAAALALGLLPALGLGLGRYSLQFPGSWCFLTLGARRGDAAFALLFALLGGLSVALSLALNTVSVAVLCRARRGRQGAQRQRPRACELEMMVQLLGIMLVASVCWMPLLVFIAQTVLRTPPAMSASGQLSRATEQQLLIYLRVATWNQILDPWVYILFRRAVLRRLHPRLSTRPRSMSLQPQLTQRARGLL
Experimental: Blood was collected from the abdominal aorta of guinea-pigs (about 400 g wt.) into 1/10 volume of 3.8% sodium citrate, and then platelet-rich plasma (PRP: 6×10^5 cells/μl) was obtained by centrifugation. A cuvette was filled with PRP 190 μl and set in an aggregometer (Hema Tracer I; Niko Bioscience). Incubation was carried out for 2 min. at 37° C. after the addition of 1 μl of dimethyl sulfoxide solution of test compounds. To the PRP, 10 μl of U-46619 (Cayman), a thromboxane A2 /prostaglandin H2 receptor agonist and potent platelet aggregation inducer, was added at the final concentration of 2 μg/ml, and platelet aggregation was measured by an aggregometer.

[1] = tested on: broncho-constriction induced by U-46619; assay: Inhibitory effect on broncho-constriction induced by U-46619 (Konzett-Roessler method, oral); format: in vivo, Male hartley guinea-pigs; settings: 0.3 mg/kg orally, 2 hrs before U-46619 4 μg/kg
Experimental: Airway resistance was evaluated according to the method of Konzett-Roessler[Naunyn-Schmiedberg's Arch. Exp. Path. Pharmak., Vol. 195, 71 (1940)]. Male hartley guinea-pigs (about 400 g wt.) were anesthetized with urethane (1.5 g/kg, i.p.) and ventilated by an artificial respirator (Model 683; Harvard). At that time, overflowed air volume above the pressure of about 12 cm H2 O was measured by using a sensor (Model 7020; Ugo basile) and the value was used as an index of broncho-constriction. 0.3 mg/kg (5 ml/kg) of test compounds suspended in 5% gum Arabic was administered orally to Guinea-pigs fasted beforehand for 24 hr. After 2 hrs, U-46619 (4 μg/kg; Cayman) was administered through the cervical vein, and then maximal response was measured. Inhibitory rates compared to the reference group were calculated based on the response rate normalized by the complete closure as 100%.

leukotriene D4 = molecular target: T2, leukotriene D4 (Cavia porcellus, UniProt Q2NNR5); assay: Leukotriene D4 antagonistic effect in isolated trachea (Schild method); set-up: species or system male Hartley guinea-pigs; settings: isolated trachea, 30 min treatment, indomethacin 3×10^-6 M, Krebs 37° C.
T2 construct: tracheas were isolated from male Hartley guinea-pigs; from tissue; host or cells: isolated trachea of male Hartley guinea-pigs
T2 sequence (Q2NNR5 1-340): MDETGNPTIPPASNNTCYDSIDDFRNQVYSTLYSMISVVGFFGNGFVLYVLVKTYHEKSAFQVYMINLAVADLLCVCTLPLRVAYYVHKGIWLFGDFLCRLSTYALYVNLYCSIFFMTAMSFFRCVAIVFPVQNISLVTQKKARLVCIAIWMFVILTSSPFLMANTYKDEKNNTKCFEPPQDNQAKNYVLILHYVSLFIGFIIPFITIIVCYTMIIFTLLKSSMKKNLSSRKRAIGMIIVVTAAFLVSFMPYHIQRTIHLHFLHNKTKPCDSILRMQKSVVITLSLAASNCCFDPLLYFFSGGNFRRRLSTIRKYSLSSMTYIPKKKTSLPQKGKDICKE
Experimental: According to an ordinary method, tracheas were isolated from male Hartley guinea-pigs, and ring specimens of approximately […] length were prepared. These specimens were suspended isotonically in organ baths that contained Krebs solution at 37° C. under a resting tension of 0.5 g. After repeated contractions with acetylcholine (1×10^-6 M; Ovisot for injection, Daiichi Seiyaku), and the first concentration-response curves was obtained by cummulative applications of leukotriene D4 (ULTRA FINE) into the organ baths. After treatments with test compounds at adequate concentrations for 30 min, the second concentration-response curves were obtained in the same manner as first applications. pKB values were calculated using these two concentration-response curves according to the method of Schild [Pharmacological Review, Vol. 9, 242 (1957)]. Indomethacin (3×10^-6 M; Sigma) was added beforehand to the organ bath to eliminate possible affections by thromboxane A2 and prostaglandin produced by stimulus of leukotriene D4 [Japan J. Pharmacol., Vol. 60, 227 (1992)].

[2] = tested on: broncho-constriction induced by leukotriene D4; assay: Inhibitory effect on broncho-constriction induced by leukotriene D4 (Konzett-Roessler method, oral); format: in vivo, male Hartley guinea-pig; settings: Cavia porcellus, po; 30 mg/kg orally, leukotriene D4 1 μg/kg after 2 hr; indomethacin and propranolol pretreatment; read-out: Inhibition rate
Experimental: Airway resistance was evaluated according to the method of Konzett-Roessler[Naunyn-Schmiedberg's Arch. Exp. Path. Pharmak., Vol. 195, 71 (1940)]. After male Hartley guinea-pig fasted beforehand for 24 hr were anesthetized with urethane, overflowed air volume was measured under artificial ventilation as an index of broncho-constriction. 30 mg/kg (5 ml/kg) of test compounds suspended in 5% gum Arabic were administered orally to […]. Leukotriene D4 (1 μg/kg; ULTRA FINE) was administered through the cervical vein after 2 hr, and then values were measured at 2 min after the time when responses became maximum. Inhibitory rates compared to the control group were calculated based on the response rate normalized by the overflowed volume at complete closure as 100% broncho-constriction state. Indomethacin (2 mg/kg, i.v.) and propranolol (1 mg/kg, i.v.) were administered at 10 min and 5 min before the administration of leukotriene D4, respectively.

[3] = molecular target: T3, thromboxane A2 synthetase (Homo sapiens, UniProt P24557); assay: Inhibitory effect on thromboxane A2 synthetase (human platelet membrane fraction, thromboxane B2 RIA); format: biochemical; settings: 3 min at 25° C., read-out: IC50 (50% inhibition of the enzyme activity)
T3 construct: human platelet membrane fraction (RAN) as a source of thromboxane A2 synthetase; purchased RAN; host or cells: human platelet membrane fraction
T3 sequence (P24557 1-533): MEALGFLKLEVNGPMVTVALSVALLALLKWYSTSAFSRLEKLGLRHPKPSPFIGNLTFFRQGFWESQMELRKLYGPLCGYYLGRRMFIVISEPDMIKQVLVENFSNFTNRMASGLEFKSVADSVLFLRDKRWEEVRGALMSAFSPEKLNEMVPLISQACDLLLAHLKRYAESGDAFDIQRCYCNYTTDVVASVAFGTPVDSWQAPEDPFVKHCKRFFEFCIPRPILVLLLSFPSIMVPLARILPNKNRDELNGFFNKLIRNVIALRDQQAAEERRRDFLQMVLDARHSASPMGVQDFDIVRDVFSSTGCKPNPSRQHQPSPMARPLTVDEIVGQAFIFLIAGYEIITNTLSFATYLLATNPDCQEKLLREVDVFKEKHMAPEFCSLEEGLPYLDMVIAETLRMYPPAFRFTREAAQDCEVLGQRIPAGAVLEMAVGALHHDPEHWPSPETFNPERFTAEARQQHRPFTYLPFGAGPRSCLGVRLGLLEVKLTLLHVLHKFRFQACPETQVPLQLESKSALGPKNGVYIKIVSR
Experimental: 100 μg/ml (285 μl) of the commercially available human platelet membrane fraction (RAN) as a source of thromboxane A2 synthetase, dimethyl sulfoxide solution of test compounds (10 μl) and 100 μg/ml (5 μl) of prostaglandin H2 (Cayman) were mixed and reaction was carried out for 3 min at 25° C. Amount of thromboxane B2, a stable metabolite derived from thromboxane A2 produced, was measured by RIA method (TXB2 quantification kit; NEN).

| SMILES | IC50 (thromboxane A2 receptor) [nM] | Inhibition rate [1] [%] | Kb (leukotriene D4) [nM] | inhibition in vivo at 30 mg/kg [2] [%] | IC50 [3] [nM] | pKB (leukotriene D4) |
| --- | --- | --- | --- | --- | --- | --- |
| O=C(O)CCCc1ccc(C(Cc2ccc(Cl)cc2)NS(=O)(=O)c2ccc(Cl)cc2)cc1 (stereo not shown) [Example 96, 4-[4-[2-(4-Chlorophenyl)-1-(4-chlorophenylsulfonylamino)ethyl]phenyl]butyric Acid] | 630 | 89 | 1000 | 43 |  |  |
| O=C(O)CCCc1ccc(C(CCC2CCCCC2)NS(=O)(=O)c2ccc(Cl)cc2)cc1 (stereo not shown) [Example 80, 4-[4-[1-(4-Chlorophenylsulfonylamino)-3-cyclohexylpropyl]phenyl]butyric Acid] | 1000 |  | 126 | 60 |  |  |
| CCCCCC(NS(=O)(=O)c1ccc(Cl)cc1)c1ccc(CCCC(=O)O)cc1 (stereo not shown) [Example 67, 4-[4-[1-(4-Chlorophenylsulfonylamino)hexyl]phenyl]butyric Acid] | 400 | 86 |  | 80 |  |  |
| CCCCCC(NS(=O)(=O)c1ccc(F)cc1)c1ccc(CCCC(=O)O)cc1 (stereo not shown) [Example 105, 4-[4-[1-(4-Fluorophenylsulfonylamino)hexyl]phenyl]butyric Acid] |  |  |  | 82 |  |  |
| CC(NS(=O)(=O)c1ccc(Cl)cc1)c1ccc(CCCC(=O)O)cc1 (stereo not shown) [Example 63, 4-[4-[1-(4-Chlorophenylsulfonylamino)ethyl]phenyl]butyric Acid] |  |  |  |  | 2000 |  |
| O=C(O)CCCc1ccc(C(NS(=O)(=O)c2ccc(Cl)cc2)C2CCCC2)cc1 (stereo not shown) [Example 73, 4-[4-[(4-Chlorophenylsulfonylamino)cyclopentylmethyl]phenyl]butyric Acid] | 250 |  |  |  | 1600 |  |
| CC(C)CCCC(NS(=O)(=O)c1ccc(Cl)cc1)c1ccc(CCCC(=O)O)cc1 (stereo not shown) [Example 107, 4-[4-[1-(4-Chlorophenylsulfonylamino)-5-methylhexyl]phenyl]butyric Acid] | 250 |  | 100 | 83 |  |  |
| CCCCC(NS(=O)(=O)c1ccc(Cl)cc1)c1ccc(CCCCC(=O)O)cc1 (stereo not shown) [Example 102, 5-[4-[1-(4-Chlorophenylsulfonylamino)pentyl]phenyl]valeric Acid] |  |  | 200 | 50 |  |  |
| CCCCCC(NS(=O)(=O)c1ccc(Br)cc1)c1ccc(CCCC(=O)O)cc1 (stereo not shown) [Example 104, 4-[4-[1-(4-Bromophenylsulfonylamino)hexyl]phenyl]butyric Acid] |  |  |  | 83 |  |  |
| CCCCC(NS(=O)(=O)c1ccc(Cl)cc1)c1ccc(CCCC(=O)O)cc1 (stereo not shown) [Example 66, 4-[4-[1-(4-Chlorophenylsulfonylamino)pentyl]phenyl]butyric Acid] | 320 | 85 | 794 | 81 |  |  |
| CC(C)CCC(NS(=O)(=O)c1ccc(Cl)cc1)c1ccc(CCCC(=O)O)cc1 (stereo not shown) [Example 71, 4-[4-[1-(4-Chlorophenylsulfonylamino)-4-methylpentyl]phenyl]butyric Acid] | 400 |  | 200 | 68 |  |  |
| CCCCCCC(NS(=O)(=O)c1ccc(Cl)cc1)c1ccc(CCCC(=O)O)cc1 (stereo not shown) [Example 99, 4-[4-[1-(4-Chlorophenylsulfonylamino)heptyl]phenyl]butyric Acid] | 320 |  | 126 | 64 |  |  |
| O=C(O)CCCc1ccc(C(CCc2ccccc2)NS(=O)(=O)c2ccc(Cl)cc2)cc1 (stereo not shown) [Example 98, 4-[4-[1-(4-Chlorophenylsulfonylamino)-3-phenylpropyl]phenyl]butyric Acid] | 320 | 84 | 398 | 57 |  |  |
| O=C(O)CCCc1ccc(C(CC2CCCCC2)NS(=O)(=O)c2ccc(Cl)cc2)cc1 (stereo not shown) [Example 79, 4-[4-[1-(4-Chlorophenylsulfonylamino)-2-cyclohexylethyl]phenyl]butyric Acid] | 320 | 55 | 100 |  |  |  |
| CC(C)CCCCC(NS(=O)(=O)c1ccc(Cl)cc1)c1ccc(CCCC(=O)O)cc1 (stereo not shown) [Example 108, 4-[4-[1-(4-Chlorophenylsulfonylamino)-6-methylheptyl]phenyl]-butyric Acid] | 500 |  | 158 | 82 |  |  |
| Cc1ccc(CC(NS(=O)(=O)c2ccc(Cl)cc2)c2ccc(CCCC(=O)O)cc2)cc1 (stereo not shown) [Example 97, 4-[4-[1-(4-Chlorophenylsulfonylamino)-2-(p-tolyl)ethyl]phenyl]butyric Acid] | 320 | 88 |  | 56 |  | 5.9 |
| CCCCCC(NS(=O)(=O)c1ccc(Cl)cc1)c1ccc(CCCCC(=O)O)cc1 (stereo not shown) [Example 106, 5-[4-[1-(4-Chlorophenylsulfonylamino)hexyl]phenyl]valeric Acid] |  |  | 126 | 58 |  |  |
